For data set [1], the system named is S. aureus MSSA and MRSA strains (GP). In words: Killing activity against a range of bacteria. Format: cell-based, Staphylococcus aureus.
Another data set relates to Listeria monocytogenes. In words: Killing activity against a range of bacteria. Format: cell-based.
A further data set concerns A549/U937. Format: cell-based. As for the experimental part:
FIGS. 22A-22B show a lung co-culture (A549/U937) model after 24 hour exposure to ZnPor displaying no toxicity (FIG. 22A) and U937 stained and imaged after 24 hours of dark exposure to 50 μM ZnPor (FIG. 22B).

The subject of data set [2] is Pseudomonas aeruginosa (GN). Nature of the data set: Killing activity against a range of bacteria. Format: cell-based.
The next data set has as its system SA biofilm. Nature of the data set: SA biofilm model with bioluminescence reporter. Format: cell-based, Staphylococcus aureus. As to conditions: escalating doses of ZnPor vs PBS. As for the experimental part: (§1) Representative of one experiment.
Biofilm formation was an important defense mechanism utilized by bacteria and was associated with bacterial phenotypes that predict worse clinical outcomes in CF. A biofilm model was deployed using an SA strain with genetically embedded bioluminescence reporter to gauge efficacy of ZnPor against SA biofilm. Plastic plates were coated with bioluminescent SA and treated with escalating doses of ZnPor or PBS. Bioluminescence was measured via spectrophotometer.

Data set [3] relates to PsA. Nature of the data set: Testing for bacterial resistance. In kind it is cell-based, Pseudomonas aeruginosa. An excerpt: One of the major concerns of developing novel small molecule antimicrobials is the potential for bacteria to develop resistance. […] The mechanism of action and target are believed to explain the absence of resistance. An MBC:MIC ratio of 2 which is what we derived from kill curves, was considered an indication of lack of resistance.

Data set [4] concerns PAO1 and PA14 strains of PsA. Nature of the data set: Time kill curves, planktonic cells. In kind it is cell-based, Pseudomonas aeruginosa. As for the experimental part:
FIGS. 13A-13B show the time kill curve of ZnPor (II) (25 μg/mL) against PAO1 (FIG. 12A) and PA14 (FIG. 12B) strains of PsA. Overnight cultures of strain PAO1 and PA14 grown in MSG media were diluted in fresh MSG to 10^6 cells/mL with fresh medium. ZnPor was added (25 μg/ml) and cultures were grown aerobically, with shaking, for 6 hours. Viable cell count (CFU per ml) was determined by serially diluting bacterial cells at the indicated time points, onto LB agar. Data from 3 separate experiments represents total mean±standard error, total (n=9) and (n=8) respectively.

Data set [5] deals with PsA. In words: Activity of extant antibiotics together with ZnPor (II).
Data set [6] has as its system planktonic PsA PAO1 cells. Nature of the data set: Syber Green entry into planktonic cells (permeabilization). In kind it is cell-based, Pseudomonas aeruginosa. Particulars: pre-treated planktonic PsA cells. As for the experimental part: Syber Green™ can pass through the cell wall into PsA cells pre-treated with ZnPor (II) at concentrations as low as 1 μg/mL; this is below the MIC (4 ug/m). Cells treated with ZnPor (II) allowed the entry of the Syber Green molecule even at sub-MIC concentrations of ZnPor (II).

The next data set has as its system A549 cells. In words: Lung cell toxicity, traditional cell culture. As to conditions: concentration exceeding therapeutic range. In kind it is cell-based, human. An excerpt:
Sample represented in graph is a traditional cell culture model and the cells were A549 cells—human lung epithelial cells.

In a further data set the test system is Drosophila melanogaster. Particulars: flies fed ZnPor (II); Yoho et al. 2014; cited from earlier work.
The next data set concerns PsA PA14 biofilms. Nature of the data set: PA14 biofilm on polyethylene coupons, LIVE/DEAD stain, CLSM. Format: cell-based, Pseudomonas aeruginosa. Particulars: ZnPor 25 μg/mL 2 h, then PEV2 (MOI 10:1) 4 h. As for the experimental part:
Biofilms were grown on polyethylene coupons in CDC approved bioreactors in MSG media for […]. Overnight media was replaced with PBS and biofilms were treated as follows: (FIG. 19A) Control (no additions), (FIG. 19B) ZnPor (25 μg/mL) for 2 hours, (FIG. 19C) Phage PEV2 (MOI of 10:1) for 4 hours, or (FIG. 19D) ZnPor (25 μg/mL) for 2 hours followed by the addition of Phage PEV2 (MOI of 10:1) for 4 hours. Coupons were gently washed in distilled water and were treated with LIVE/DEAD™ stain. All coupons were imaged using confocal laser scanning […] microscopy (CLSM) at 60×.

The subject of data set [7] is Human airway epithelial (BEAS2B, 16HBE, CFBE) and alveolar epithelial (A549) cells. Nature of the data set: LDH in supernatant of pulmonary cell lines. Format: cell-based. As for the experimental part:
as §1
Human airway epithelial (BEAS2B, 16HBE, CFBE) and alveolar epithelial (A549) cells were cultured, plated on 12-well plates, serum starved overnight, and treated with increasing doses of ZnPor. Cell culture supernatants were collected after 48 h of treatment, and supernatants were then assayed for lactate dehydrogenase (LDH), a general marker of cell death released into the supernatant after cell lysis.

The test system of data set [8] is Coronavirus isolated from a cold (ATCC). Nature of the data set: Anti-viral activity against a Coronavirus. In kind it is cell-based. As to conditions: without light activation. The text has this:
ZnPor (II) can interact with many macromolecules and may bind to important components of a virus, rendering it unable to infect cells. […] This is due to the high levels of ROSs (Reactive Oxygen Species, e.g., superoxide) produced by activation of the porphyrin and which destroy a wide range of macromolecules (proteins, lipids etc.). […] ZnPor can bind to proteins, which may have accounted for how ZnPor (II) acted, in that it bound to the viral proteins such as the spike protein of Coronaviruses. If the Spike proteins bound to ZnPor (II) then the virus couldn't attach to the host cell binding receptor for the spike proteins. There are relatively few antiviral agents. While there are a number of porphyrins that can inactivate viruses using light activation, ZnPor (II) porphyrin has antiviral activity without light activation.

In data set [9] the test system is Mycobacterium tuberculosis. In words: Killing of acid fast bacterium. In kind it is cell-based. An excerpt: ZnPor (II) is the only porphyrin that kills Gram-positive and Gram-negative bacteria without photoactivation. […] Additionally, ZnPor (II) inactivates the bacteriophage PEV2, a well-studied bacteriophage of Pseudomonas aeruginosa. PEV2 is currently being used in phage therapy in Europe. […] While ZnPor (II) can inactivate phage, at lower concentrations it can act synergistically with bacteriophage PEV2 or the purified genome of PEV2 in remediation of biofilms of PsA. This is referred to as PAS Phage Antibiotic Synergy (PAS) and is of great interest and intense study; as a means to overcome several known limitations of phage-only “Phage Therapy”.

In the case of “meso-5,10,15-tris(N-methyl-4-pyridyl)-20-(pentafluorophenyl)porphyrinatozinc(II), tris-p-toluene sulfonate [ZnPor]”, the killing entry (in data set [1]; in the data set on Listeria monocytogenes; in data set [2]; in data set [9]) was “effective at killing” throughout. Besides, the toxicity result in the data set with A549/U937 was “no toxicity”; in the data set on human lung or skin cells, “no toxicity”; in the data set on A549 cells it was “No toxicity was observed”. Moreover, the “biofilm formation by bioluminescence” value with SA biofilm is recorded as “significantly less biofilm formation”. Besides, the “colony growth on LB plates” value with PsA [3] (2×, 4× and 8×MIC concentration of ZnPor with PsA cell) is recorded as “No colony growth”. Besides, the resistance result with PsA [3] (during 8 years of testing) is reported as “no resistance was observed”. This substance also returned a bactericidal concentration in data set [4] (PsA) of 25 µg/mL. The “MBC:MIC ratio” value in data set [4] (derived from kill curves) was found to be 2. For the same substance, in the data set on human lung or skin cells, the “non-toxic level relative to the MBC for S. aureus MRSA strain” value is given as “over 100 times”. Further, in the data set on PsA [5], the “effect on extant antibiotics ineffective against bacterial biofilms, e.g., Tobramycin” value is given as “enables activity”. The “lowest ZnPor (II) concentration allowing Syber Green entry” value in data set [6] came out at 1 µg/mL. The “toxicity to Drosophila” value in the data set with Drosophila melanogaster is listed as “not toxic”. For the same substance, the “effect on PA14 cells towards PEV2 phage” value in the data set with PsA PA14 biofilms is reported as “sensitive to PEV2 phage”. Further, the LDH dose response result in data set [7] (16HBE, CFBE, and A549 cells) was “dose response of decreased LDH”. The “LDH in cell culture supernatant vs treatment without ZnPor” value in data set [7] (48 h of treatment, increasing doses) was “significantly less LDH”. The viral infection entry in [8] is reported as “prevented viral infection”.

Source of the values: patent publication US11975009B2, “Use of zinc porphyrin as an antimicrobial” (ZNABLE LLC, priority 2022, dated 2024).
